Assay results taken from the supplement of paper PMC4862054.

How the values were obtained:
Test in all cases: normalised viability (% of control), CellTiter-Blue; higher = more viable cells (about 100 = DMSO control)
Conditions in all cases: incubation time: 72 h
[1] = tested on: BT-549
In short: (§1)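 Normalised viability is given for a single listed concentration of the series. In 384-well plates, breast cancer cell lines were incubated 72 h with compound, then read with CellTiter-Blue (2 h, 37 °C) at 560/590 nm. Per-plate scaling set vehicle to 100 and a positive kill control to 0, with Z'-factor quality control.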

[2] = tested on: CAL-148
In short: as §1

[3] = tested on: CAL-85-1
In short: as §1

[4] = tested on: HCC1937
In short: as §1

[5] = tested on: HDQ-P1
In short: as §1

[6] = tested on: MDA-MB-231
In short: as §1

[7] = tested on: MDA-MB-468
In short: as §1

[8] = tested on: SK-BR-3
In short: as §1

[9] = tested on: BT-474
In short: as §1

[10] = tested on: BT-549; remark: listed apart in the source
In short: as §1

[11] = tested on: CAL-120
In short: as §1

[12] = tested on: CAL-148; remark: listed apart in the source
In short: as §1

[13] = tested on: CAL-51
In short: as §1

[14] = tested on: DU-4475
In short: as §1

[15] = tested on: HCC1599
In short: as §1

[16] = tested on: HCC1937; remark: listed apart in the source
In short: as §1

[17] = tested on: HDQ-P1; remark: listed apart in the source
In short: as §1

[18] = tested on: Hs578T
In short: as §1

[19] = tested on: MDA-MB-436
In short: as §1

[20] = tested on: MFM-223
In short: as §1

[21] = tested on: SK-BR-3; remark: listed apart in the source
In short: as §1

[22] = tested on: CAL-148; remark: listed apart in the source
Procedure: (§2)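 DSRT, CellTiter-Blue viability, 72 h incubation. Signal is normalised to DMSO and benzethonium chloride controls. Value is the normalised response at dose 6.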

[23] = tested on: CAL-51; remark: listed apart in the source
Procedure: as §2

[24] = tested on: CAL-85-1; remark: listed apart in the source
Procedure: as §2

[25] = tested on: DU-4475; remark: listed apart in the source
Procedure: as §2

[26] = tested on: HDQ-P1; remark: listed apart in the source
Procedure: as §2

[27] = tested on: MDA-MB-453
Procedure: as §2

NCCCNCCSP(=O)(O)O [Amifostine]
Conditions | normalised viability [%]
[1], 100 nM | 103
[2], 10 nM | 93.5
[3], 10 nM | 90.7
[4], 100 nM | 85.5
[5], 10 nM | 105
[6], 100 nM | 93.1
[7], 100 nM | 102
[8], 100 nM | 108
[9], 10 nM | 94.2
[9], 1000 nM | 94.5
[9], 10000 nM | 111
[10], 10 nM | 81.4
[10], 1000 nM | 96.6
[10], 10000 nM | 93.3
[11], 10 nM | 71.9
[11], 1000 nM | 84.1
[11], 10000 nM | 82.1
[12], 3 nM | 97.6
[12], 30 nM | 93.9
[12], 100 nM | 96.5
[13], 3 nM | 113
[13], 30 nM | 106
[13], 100 nM | 107
[14], 3 nM | 85.9
[14], 30 nM | 93.9
[14], 100 nM | 86.4
[15], 10 nM | 102
[15], 1000 nM | 72.4
[15], 10000 nM | 81.7
[16], 10 nM | 79.2
[16], 1000 nM | 95
[16], 10000 nM | 89.5
[17], 3 nM | 101
[17], 30 nM | 95.5
[17], 100 nM | 84.8
[18], 10 nM | 101
[18], 1000 nM | 104
[18], 10000 nM | 95.6
[19], 10 nM | 135
[19], 1000 nM | 91.8
[19], 10000 nM | 86.2
[20], 10 nM | 81.8
[20], 1000 nM | 82.1
[20], 10000 nM | 96.4
[21], 10 nM | 81.9
[21], 1000 nM | 92.6
[21], 10000 nM | 93.3
[22], 300 nM | 95.2
[23], 300 nM | 103
[24], 300 nM | 93.8
[25], 300 nM | 87.7
[26], 300 nM | 63.9
[27], 300 nM | 105

CC[C@@H]1C(=O)N(C)c2cnc(Nc3ccc(C(=O)NC4CCN(C)CC4)cc3OC)nc2N1C1CCCC1 [BI 2536]
Conditions | normalised viability [%]
[1], 10 nM | 36.9
[2], 1 nM | 105
[3], 1 nM | 90
[4], 10 nM | 25.9
[5], 1 nM | 102
[6], 10 nM | 52.6
[7], 10 nM | 48.5
[8], 10 nM | 15.8
[9], 1 nM | 116
[9], 100 nM | 89.1
[9], 1000 nM | 100
[10], 1 nM | 85.2
[10], 100 nM | 38.6
[10], 1000 nM | 44.2
[11], 1 nM | 97.5
[11], 100 nM | 28.6
[11], 1000 nM | 30.6
[12], 0.3 nM | 96.9
[12], 3 nM | 92.9
[12], 10 nM | 26.2
[13], 0.3 nM | 99.2
[13], 3 nM | 90.5
[13], 10 nM | 63.9
[14], 0.3 nM | 105
[14], 3 nM | 86.5
[14], 10 nM | 50.6
[15], 1 nM | 78.7
[15], 100 nM | 81.5
[15], 1000 nM | 61.3
[16], 1 nM | 107
[16], 100 nM | 24
[16], 1000 nM | 28.3
[17], 0.3 nM | 126
[17], 3 nM | 77
[17], 10 nM | 74.2
[18], 1 nM | 114
[18], 100 nM | 29.9
[18], 1000 nM | 65.3
[19], 1 nM | 95.7
[19], 100 nM | 65.3
[19], 1000 nM | 78.5
[20], 1 nM | 87.2
[20], 100 nM | 48.6
[20], 1000 nM | 48.5
[21], 1 nM | 99.7
[21], 100 nM | 18.4
[21], 1000 nM | 23.1
[22], 30 nM | 25.5
[23], 30 nM | 25.8
[24], 30 nM | 45.3
[25], 30 nM | 18.1
[26], 30 nM | 43.6
[27], 30 nM | 28.4
